Read-outs that look alike come from different tables or passages of the source.
How the values were obtained:
AS283 cells = test system: AS283 cells
Description: (§1) Both human tumor cell lines were maintained in RPMI 1640 medium plus 10% fetal calf serum. They were seeded in 15-ml rubber-stoppered vials containing 2 μCi of (^14C) glucose and 2 ml of tissue culture media. […] On days 6, 9 and 12, the vials were removed from the incubator and evaluated radiometrically for the amount of ^14CO2 produced. Inhibition of conversion of (^14C) glucose to ^14CO2 is a reliable index of cytotoxicity (Von Hoff et al., Cancer Res. 45:4032-4038, 1985).

[1] = test system: Raji line lymphoblast-like cells
Description: as §1

AIDS-associated NHL = test system: AIDS-associated NHL
Description: The daily dose is diluted in 1000 cc of 0.9% Sodium Chloride Injection, USP, or 5% Dextrose Injection, USP, for infusion over 24 hours.

[2] = stability of diluted infusion solutions; assay type: physicochemical; conditions: in 0.9% Sodium Chloride Injection or 5% Dextrose Injection
advanced NHL = conditions: cited from earlier work
[3] = in vivo; cited from earlier work

Row | SMILES | % SURVIVAL AS283 (AS283 cells; final concentration 1 mcg/ml) [%] | % SURVIVAL AS283 (AS283 cells; final concentration 10 mcg/ml) [%] | % SURVIVAL AS283 (AS283 cells; final concentration 50 mcg/ml) [%] | % SURVIVAL AS283 (AS283 cells; final concentration 100 mcg/ml) [%] | % SURVIVAL RAJI ([1]; final concentration 1 mcg/ml) [%] | % SURVIVAL RAJI ([1]; final concentration 10 mcg/ml) [%] | % SURVIVAL RAJI ([1]; final concentration 100 mcg/ml) [%] | drug-related adverse effects (AIDS-associated NHL; 300 mg/sq m/day for 7 days iv, two courses) | size of nodes after first course (AIDS-associated NHL; 300 mg/sq m/day for 7 days, intravenous infusion, baseline nodes 9.0×9.0 cm and 3.0×2.0 cm) | infraclavicular node after second course (AIDS-associated NHL; second course three weeks later, baseline 9.0×9.0 cm) | stability of diluted solution ([2]; refrigeration (2-8° C.)) [days] | stability of diluted solution ([2]; room temperature (15-30° C.)) [days] | tolerability and efficacy (advanced NHL; HIV negative patients with advanced NHL) | myelosuppression or immunosuppression (advanced NHL; human, in vivo) | blood-brain barrier passage [3] | response to previous treatment (AIDS-associated NHL; same patient, before gallium nitrate)
1 | O=[N+]([O-])[O-].O=[N+]([O-])[O-].O=[N+]([O-])[O-].[Ga+3] [Gallium Nitrate, gallium nitrate] | 99 | 122 | 58 | 0 | 102 | 114 | 33 | not accompanied by apparent drug-related adverse effects | decreased in size | not palpable at all | 7 | 2 | well tolerated and effective | little or no myelosuppression or immunosuppression | crosses the blood-brain barrier | –
2 | CC(/C=N/NC(=N)N)=N\NC(=N)N [mitoguazone] | – | – | – | – | – | – | – | – | – | – | – | – | – | – | – | essentially unresponsive

— patent US6562870B1 (priority 1994, dated 2003)
